Measurements reported in patent US20020183684A1, “Electroporation-enhanced inhibition of vascular neointimal hyperplasia” (GENETRONICS, priority 1996, published 2002).
Entries after “also recorded” stand apart in the source; their conditions may differ.

Tests used:
[1] = tested on: porcine carotid artery; conditions: pig, in vivo; cited from earlier work
[2] = tested on: balloon injured rat carotid arteries (neointimal hyperplasia); assay: Balloon injury of rat carotid arteries, local heparin delivery with or without electroporation, arterial morphometry at day 28; assay type: in vivo; conditions: for Active lumen area / Intimal wall thickness / Mean intimal area / Medial area / Intima/media thickness ratio: day 28, mean ± SEM; for Neointima formation (in words): 28 days
Method: Mature adult male Sprague-Dawley rats (Harlan, San Diego, Calif.) with an average body weight of 423.8±8.6 (SEM) gm were housed in individual cages in light-dark cycled, temperature-controlled rooms. Standard laboratory chow and water were available ad lib. After a minimum of 7 days acclimatization, the rats were anesthetized with an intramuscular injection of ketamine, 90 mg/kg (Phoenix, St. Joseph, Mo.) and xylazine, 15 mg/kg (Fermenta, Kansas City, Mo.). After anesthesia, they were strapped supine on a surgical table with body temperature maintained at 37° C. using a thermostatic blanket. The animals breathed spontaneously and Lead II electrocardiogram was monitored throughout the experiment. […] All procedures conformed to the guiding principles of the American Physiological Society and Institutional Animal Care and Use Committee (Department of Health and Human Services, National Institutes of Health).
Neointimal hyperplasia in rats was induced by a technique described earlier by Clowes et al. (A. W. Clowes and M. M. Clowes, supra). Briefly, the left and right common carotid arteries (CCA) were isolated through cervical incision. After isolation of the arteries, the left CCA at the thoracic entry point was temporarily clamped with a bulldog clip. The right CCA served as a control artery and was not surgically manipulated. The left CCA was catheterized through a proximal incision at the junction of the internal and external carotid arteries with a 2F Fogarty embolectomy catheter (Baxter Healthcare Corporation, Irvine, Calif.). The catheter was advanced to the distal CCA, inflated with 0.3 ml of ambient air for 30 sec each time, and retracted to the internal carotid-external carotid junction three times, with one rotation after each passage to ensure uniform injury of the arterial wall. The Fogarty catheter was then withdrawn and exchanged for a porous balloon electroporation (PBE) catheter.
The PBE catheter (manufactured by Danforth Biomedical, Santa Clara, Calif. as per design provided by Genetronics, Inc., San Diego, Calif.) is comprised of a 2F, triple-lumen shaft with a porous 1.5 cm long PET balloon at the distal end. Catheter lumens are used for passage of a 0.014″ guide wire for balloon inflation and deflation and as a conduit for the lead to the central electrode inside the balloon. The balloon has an inflated diameter of 1.4 mm, with four rows of 7 holes each (nominal hole size: 15-25 μm). The balloon serves as a reservoir for the heparin-containing composition. The central electrode inside the balloon is a coiled silver wire wrapped tightly and densely around the catheter shaft, over a length of approximately 10 mm. This balloon electrode acts as the cathode and the inserted guidewire as the anode. The distance between the distal end of the balloon electrode and the proximal end of the bare zone of the conductive guidewire was 4 mm (FIG. 9).
Following balloon catheter injury of the left CCA, rats were divided into three groups. Groupl received local intracarotid delivery of heparin (Elkins-Sinn, Cherry Hill, N.J.), but no electrical pulsing (positive untreated test: H+E−; H stands for heparin and E for electrical pulsing; + or − designate […] of H or E, respectively). Group 2 received a sequence of four electroporative pulses in the presence of heparin (positive treated test: H+E+). The uninjured right CCA of all animals comprised Group 3 which received neither drug nor electrical pulses and served as negative untreated control (H−E−).
Immediately following balloon injury of the vessel, a PBE catheter was introduced into the injured portion of the left CCA after placement of a temporary clip at the distal end of the balloon injured segment. Heparin (200 IU in 0.1 ml) (Elkins-Sinn) was delivered through the balloon pores into the arterial wall over a period of approx. 20 seconds. […]

[3] = tested on: porcine artery; conditions: cited from earlier work
[4] = Group 2 H+E+ Inj+, with electroporation

In the case of hirudin, the “Fraction of drug washed out” value [1] is given as 80% and the “Level in the artery” value [1] is given as “the same as for passive delivery”.
With heparin the Active lumen area ([2]; Group 1 H+E− Inj+, no pulsing) was 0.295 sq. mm, the Intimal wall thickness ([2]; Group 1 H+E− Inj+, no pulsing) was 541 μm and the Mean intimal area ([2]; Group 1 H+E− Inj+, no pulsing) was 0.778 sq. mm. It also gave a Medial area ([2]; Group 1 H+E− Inj+, no pulsing) of 0.254 sq. mm, an Intima/media thickness ratio ([2]; Group 1 H+E− Inj+: heparin 200 IU local, no electrical pulsing) of 2.96 and an Active lumen area [2, 4] of 0.902 sq. mm. For the same substance, the Intimal wall thickness [2, 4] was 26.10 μm, the Mean intimal area [2, 4] was 0.067 sq. mm and the Medial area [2, 4] was 0.338 sq. mm. The Intima/media thickness ratio ([2]; Group 2 H+E+ Inj+: heparin 200 IU local plus 4 pulses 100 V 20 ms) was 0.25, the “Slope of linear regression, active lumen area versus IEL area” value ([2]; H+E+ group) was 0.57 and the “Neointima formation (in words)” value ([2]; H+E+: heparinized, electroporated balloon injured arteries, versus H+E−) was “significant reduction in the volume of neointima; also recorded: vastly reduced neointimal thickness; also recorded: strong reduction in the formation of neointimal volume”. The “Slope of linear regression, active lumen area versus IEL area” value ([2]; H+E− group) was 0.17, the “Neointima formation (in words)” value ([2]; H+E−: heparinized, non-electroporated balloon injured arteries) was “marked proliferation of neointima; also recorded: pronounced neointima formation” and the “Pre-sacrificial electrocardiogram (Lead II)” value ([2]; all groups) was “did not reveal any rhythm abnormality”. For the same substance, the “Period of inhibition of neointimal growth and favorable remodeling” value ([2]; electroporation-enhanced delivery of heparin) was “at least 28 days”, the “Tolerability of surgery and arterial electroporation” value ([2]; rats, behavior and weight) was “tolerated the surgery and arterial electroporation well” and the “Fraction of drug washed out” value ([3]; approximately 1 hour after iontophoretic delivery) was 96%. The “Concentration remaining in the vessel, IO versus passive delivery” value ([3]; heparin 1000 U to 20,000 U/ml) was “greater concentrations remaining in the vessel”, the “Safety of iontophoretic delivery” value ([3]; heparin 1000 U/ml, coronary angiography, blood pressure, cardiac rhythm) was “safe and well tolerated” and the Platelet deposition ([3]; pig balloon injury model, following IO delivery) was “reduced”.
